From patent US20200370050A1, “CELL PROLIFERATION INHIBITOR AND CANCER TREATMENT OR PREVENTION PHARMACEUTICAL COMPOSITION INCLUDING CELL PROLIFERATION INHIBITOR” (priority 2017, published 2020)

What was measured:
[1] = system: HCT116 cells; test: Effect of CRAF protein fragment on cell growth, number of living cells by WST assay (CCK-8); type: cell-based, human; conditions: 1.0×10^4 cells seeded (similar tendency at 2.0×10^4), transfected with pcDNA-hRAF384, 100 ng plasmid per well, 0-96 h, control empty vector pcDNA3.1(+), FIG. 5 part A
Description: (§1) The CRAF protein fragment expression plasmid pcDNA-hRAF384 (5807 bp) was prepared by cloning the region of positions 332 to 718 of the human CRAF gene (SEQ ID NO: 6) downstream of a CMV (cytomegalovirus) promoter in the vector pcDNA3.1(+) (Thermo Fisher Scientific). The plasmid expresses a CRAF protein fragment (a polypeptide having the amino acid sequence set forth in SEQ ID NO: 9) of positions 56 to 184 of the human CRAF protein (SEQ ID NO: 5).
(§2) HCT116 cells (KRAS mutation-positive human colon cancer cells) were obtained from ATCC. Since HCT116 cells have KRAS in which the position 13 amino acid glycine (G) is activatingly mutated to aspartic acid (D), the RAS/RAF/ME/ERK signaling cascade is activated in HCT116 cells.
(§3) The HCT116 or DLD-1 cells were seeded at 1.0×10^4 or 2.0 x 10^4 cells per well of 96-well plates and cultured in a McCoy's SA medium in an environment of 5% CO2 at 37° C. for 24 h. The cultured cells were transfected with the CRAF protein fragment expression plasmid pcDNA-hRAF384 using Lipofectamine 3000 (Thermo Fisher Scientific). As a control, the cells were transfected with the empty vector pcDNA3.1(+) (Thermo Fisher Scientific). […]
(§4) Immediately (0 h), 24 h, 48 h, 72 h, and 96 h after the cultivation, the cells were collected and measured for the number of living cells by WST assay. […]

[2] = system: DLD-1 cells; test: as above; type: cell-based, human; conditions: 1.0×10^4 cells seeded (similar tendency at 2.0×10^4), transfected with pcDNA-hRAF384, 100 ng plasmid per well, 0-96 h, control empty vector pcDNA3.1(+), FIG. 5 part B
Description: as §1
as §2, with “DLD-1” for “HCT116”, “JCRB Cell Bank of National Institutes of Biomedical innovation, Health and Nutrition.” for “ATCC.”, “RAS/RAF/MEK/ERK” for “RAS/RAF/ME/ERK”
as §3, §4

“CRAF protein fragment: Polypeptide of SEQ ID NO: 9, positions 56 to 184 of human CRAF protein, expressed from plasmid pcDNA-hRAF384” was tested, and the “cell growth (number of living cells) as compared to the control” value [1] was “reduced growth” and the “cell growth (number of living cells) as compared to the control” value [2] was “reduced growth”.
